Assay results as given in EP1053750A1, “Use of proteasome-inhibitor for the induction of programmed cell death (apoptosis)” (Max-Planck-Gesellschaft zur Förderung der Wissenschaften …, priority 1999, dated 2000).
One block for each compound: values may come before it. Square brackets hold non-standard residues; d marks the D form. Peptide text beside a SMILES is read from it. * marks the point of attachment. Nva = CCC[C@H](N)C(=O)O; Cbz = O=C(OCc1ccccc1)*

Key:
[1] = biological target: T1, chymotrypic activity of the proteasome (Bos taurus, UniProt Q32KL2); assay: Proteasomal activity in lysates of treated BAE cells, substrate Suc-LLVY-AMC; type: cell-based, bovine; settings: total cell lysates after 15 h incubation of BAECs with 50 µM inhibitor
T1 construct: endogenous in cells; host or cells: primary bovine aortic endothelial cells (BAE), total lysate after 15-16 h treatment of the cells
T1 sequence (Q32KL2 60-263): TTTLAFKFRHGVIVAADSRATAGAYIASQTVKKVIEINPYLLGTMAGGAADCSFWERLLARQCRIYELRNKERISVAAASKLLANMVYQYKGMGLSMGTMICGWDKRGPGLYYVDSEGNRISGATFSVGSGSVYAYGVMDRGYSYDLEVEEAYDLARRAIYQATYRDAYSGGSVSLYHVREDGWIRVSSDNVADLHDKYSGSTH
Procedure: (§1) Lysates prepared from BAE cells incubated for 15 hours with 50 µM of the indicated inhibitors were assayed for their ability to suppress proteasomal function by using Suc-LLVY-AMC as substrate for the chymotryptic activity (a) and Z-LLE-AMC as substrate for the post acidic residue cleaving activity (b). Activities are expressed as the relative fluorescence measured after 45 min of incubation with the substrates and reflect the mean of two independent experiments each performed in duplicate.
(§2) DMSO at a final concentration of 0.1% served as a vehicle-only control. Floating and adherent cells were harvested, lysed by sonication in ice-cold solution of 20 mM Tris-HCI pH 7.5, containing 20% glycerol, centrifuged in a benchtop centrifuge (10 min, 2000 g). […] A total of 15 µg of protein in a volume of 200 µl lysis buffer supplemented with 5 mM CaCl2 was assayed for chymotryptic and peptidyl-glutamyl-hydrolyzing activity in the presence of 10 µM Suc-Leu-Leu-Val-Tyr-AMC (Bachem, Heidelberg, Germany) and 10 µM Z-Leu-Leu-Glu-AMC (Peptide Institute, Osaka, Japan) respectively.

[2] = tested on: chorioallantoic membrane (CAM); assay: Chorioallantoic membrane (CAM) assay; type: in vivo, chick embryo
Procedure: All experiments with chick embryos were performed in ovo. After aspiration of 2 ml of eggwhite from the pointed side of the egg, a window was cut into the eggshell on embryonic day 3 or 4 (E3, E4). The eggs were resealed with tape and further incubated until E9. […] Approximately 1 cm^2-pieces of the CAM were then cut out, washed in PBS and fixed in Carnoy's solution. After dehydration and embedding in paraffin, 8 µm sections were cut and stained with an anti-BrdU mouse monoclonal antibody (Boehringer Mannheim, Germany) according to the manufacturer's instructions. Counterstaining of the sections was performed with Gill's hematoxylin (Serva, Heidelberg, Germany). Sections were mounted using Aquamount (Merck, Darmstadt, Germany) and photos were taken with a Zeiss Axiophot microscope. […] Control pellets were prepared with an equal amount of Leupeptin or with DMSO as vehicle, respectively. To aid in the visualization of the vascular system, embryos and CAMs were then injected using pulled glass capillaries with 10% Luconyl Blue (BASF, Ludwigshafen, Germany) in PBS, and photographs were taken using a stereomicroscope with camera adapter.
In eight eggs the windows of the egg shells were enlarged under an operation microscope. After a peripheral incision in the CAM was made, the main artery was incised with a pair of ocular scissors, and a glass capillary (World Precision Instruments, Inc. Germany) pulled to the adequate diameter, was inserted and sealed with a drop of cyanoacrylate (Loctite®). Efflux was enabled by making another incision into a main draining vessel. The vascular system was flushed with up to 5 ml of prewarmed (37 -39°C) physiological saline (0.9% NaCI) under mechanically controlled pressure. […] After complete polymerization of the casting solution, the membranes were dissected and macerated in a solution of 5% potassium hydroxide (Fluka, Neu-Ulm, Germany) at 40°C for 1 - 2 days. The resulting corrosion casts of all specimens were freeze dried, mounted and sputter coated. Examination of the microvascular corrosion casts were carried out with a Stereoscan Mk-250 scanning electron microscope (Cambridge, England). Alternatively, in situ fixed CAM segments were cut out, processed for semi-thin sectioning and stained with methylene blue and Azur II. Selected specimens were trimmed for ultrathin sectioning, and counterstained with uranyl acetate and lead citrate.

[3] = tested on: subconfluent primary BAE cells; assay: Apoptotic morphology (phase contrast, Hoechst 33342), BAE cells; type: cell-based, bovine; settings: for morphological changes associated with programmed cell death: subconfluent BAE cells, 50 µM for 15 - 24 h, or 10 µM after 48 hours
calpain = settings: cited from earlier work
cathepsin B = cathepsin B (Homo sapiens, UniProt P07858); settings: cited from earlier work
HUE cells [4] = assay: DNA fragmentation assay; type: cell-based, human; settings: 250 µM caspase inhibitor 1 h before 10 µM PSI, 18 h
Procedure: • a. Analysis of PSI-induced DNA fragmentation by agarose gel electrophoresis. […] Neither caspase inhibitor (Ac-YVAD-CHO 250 µM, lane 4; Ac-DEVD-CHO 250 µM, lane 5) nor DMSO (lane 6) induced the characteristic pattern of DNA fragmentation. M1 and M2: DNA size markers (kb). • b. Immunoblot analysis of HUE cell lysates after incubation with PSI. […] Equal loading was controlled by using an antibody directed against GAPDH enzyme.
HUE cells which had been plated at 20000 cells/cm^2 24 hours before the assay, were treated with 250 µM of the caspase inhibitors Ac-YVAD-CHO or Ac-DEVO-CHO (Peptide Institute, Osaka, Japan) or the equivalent volume of dimethylsulfoxide (DMSO) for 1 h prior to additon of the proteasomal inhibitors. Incubation of the cells was continued for a further 18 h and the extent of DNA fragmentation was analyzed as previously described with some minor modifications (Hockenberry et al., Nature 348 (1990), 334 - 336). Briefly, both the floating cells and the adherent cells which were detached by trypsinization, were lysed in a solution containing 0.5% Triton X100, 10 mM EDTA and 10 mM Tris-HCL pH 7.5 for 30 min on ice. To separate the intact chromatin from the oligonucleosomal fragments, the lysate was centrifuged at 13000 g for 10 min at 4°C and the resulting supernatant was sequentially extracted with phenol followed by phenol/chloroform/iso-amylalcohol (25:24:1; v/v/v). Low molecular weight DNA was precipitated by the addition of 0.5 vol 7 M ammonium acetate and 2.5 vol ice-cold ethanol. The precipitate was washed in 75% ethanol, dissolved in TE-buffer, containing RNase A (20 µg/ml; Boehringer Mannheim), incubated for 30 min at 37°C and subjected to electrophoresis on 1.5% agarose gels.

HUE cells [5] = assay: Viability assay (MIT assay), HUE cells; type: cell-based, human; settings: for EC50: Homo sapiens, 48 h, 48 h incubation
MDCK epithelial cells = assay: Viability assay (MIT assay), MDCK cells; type: cell-based, canine; settings: for EC50: Canis lupus familiaris, 48 h, 48 h incubation
Procedure: The indicated values are expressed as the percentage of absorbance at 570 nm relative to the absorbance obtained by DMSO treated (control) cells.
Madin Darby canine kidney epithelial cells (MDCK; ATCC CLL-34) were grown in Dulbecco's Modified Eagle's Medium (DMEM) containing 10% FCS, penicillin and streptomycin.
Briefly, the cells were plated either at 3000 cells/well (low density) or 30000 cells/well (high density) onto 96 well plates and grown over night. […] The formazan cystals generated were subsequently dissolved in DMSO and absorption measured at 570 - 650 nm.

[6] = biological target: T2, peptidyl-glutamyl hydrolyzing activity of the proteasome (Bos taurus, UniProt Q3MHN0); assay: Proteasomal activity in lysates of treated BAE cells, substrate Z-LLE-AMC; type: cell-based, bovine; settings: total cell lysates after 15 h incubation of BAECs with 50 µM inhibitor
T2 construct: endogenous in cells; host or cells: primary bovine aortic endothelial cells (BAE), total lysate after 15-16 h treatment of the cells
T2 sequence (Q3MHN0 1-239): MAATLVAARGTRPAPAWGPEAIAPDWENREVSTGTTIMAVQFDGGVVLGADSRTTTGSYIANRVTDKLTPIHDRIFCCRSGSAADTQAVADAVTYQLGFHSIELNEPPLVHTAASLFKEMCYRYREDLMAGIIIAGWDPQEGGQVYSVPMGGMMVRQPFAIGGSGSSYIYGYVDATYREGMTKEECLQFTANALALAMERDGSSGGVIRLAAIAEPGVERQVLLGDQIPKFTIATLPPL
Procedure: as §1, §2

BAE cells = assay: Viability assay (MIT assay), BAE cells; type: cell-based, bovine; settings: for EC50: Bos taurus
[7] = EC50 confluent versus subconfluent, 2880 min
[8] = sub (low density, subconfluent)

Compound: CC(=O)N[C@@H](CC(C)C)C(=O)N[C@@H](CC(C)C)C(=O)N[C@H](C=O)CCCNC(=N)N [Leupeptin]
- cleavage of Suc-Leu-Leu-Val-Tyr-AMC [1]: not
- %CAMs with non-perfused areas ([2]; 3.1 µg/disc, methylcellulose disc on CAM for 48 h, Luconyl Blue injection, positive/total CAMs in parenthesis): 0 (0/26) %
- vascular patterning or perfusion efficacy in the CAM ([2]; same amount as PSI (3.1 µg/disc)): did not elicit any significant changes

Compound: CSCC[C@@H](C=O)NC(=O)[C@H](CC(C)C)NC(=O)[C@H](CC(C)C)NC(C)=O [LLnM] (Ac-Leu-Leu-Met-aldehyde)
- cleavage of Suc-Leu-Leu-Val-Tyr-AMC [1]: not
- changes in cellular morphology or viability ([3]; cultured BAE cells): did not induce any changes
- Ki (calpain): 9 nM
- Ki (cathepsin B): 12 nM

Compound: CC(=O)N[C@@H](CC(=O)O)C(=O)N[C@@H](CCC(=O)O)C(=O)N[C@H](C(=O)N[C@H](C=O)CC(=O)O)C(C)C [Ac-DEVD-CHO]
- blocking of PSI-induced morphological changes and DNA fragmentation (HUE cells [4]): blocked

- cleavage of Suc-Leu-Leu-Val-Tyr-AMC [1]: clearly reduced
- total cellular peptidyl-glutamyl hydrolyzing activity (Z-Leu-Leu-Glu-AMC) [6]: similarly reduced
Compound: CCC[C@@H](C=O)NC(=O)[C@H](CC(C)C)NC(=O)[C@H](CC(C)C)NC(=O)OCc1ccccc1 [LLnV] (Cbz-Leu-Leu-[Nva]-aldehyde)
- x difference (HUE cells [5]; [7]): 8.1 fold
- EC50 (HUE cells [5]; con (grown to confluency)): 2500 nM
- EC50 (HUE cells [5]; [8]): 310 nM
- EC50 (MDCK epithelial cells; con (confluent)): 2950 nM
- EC50 (MDCK epithelial cells; [8]): 196 nM
- x difference (MDCK epithelial cells; [7]): 15.1 fold
- morphological changes associated with programmed cell death [3]: had the same effect
- x difference (BAE cells; BAE, EC50 confluent versus subconfluent, 2880 min): 6.8 fold
- EC50 (BAE cells; 96 h, BAE cells seeded at high density, grown to confluency for 4 days): 2720 nM
- EC50 (BAE cells; BAE, con (grown to confluency for 4 days), 48 h incubation): 2720 nM
- EC50 (BAE cells; BAE, sub (low density, subconfluent), 48 h incubation, viability reduced to 50% of DMSO control): 402 nM

- cleavage of Suc-Leu-Leu-Val-Tyr-AMC [1]: not
Compound: CC(C)C[C@H](NC(=O)[C@H]1O[C@@H]1C(=O)O)C(=O)NCCCCN=C(N)N [E64]

Compound: CC(C)C[C@@H](C=O)NC(=O)[C@H](CC(C)C)NC(=O)[C@H](CC(C)C)NC(=O)OCc1ccccc1 [LLL] (Cbz-Leu-Leu-Leu-aldehyde)
- morphological changes associated with programmed cell death [3]: had the same effect

Compound: CC(=O)N[C@@H](Cc1ccc(O)cc1)C(=O)N[C@H](C(=O)N[C@@H](C)C(=O)N[C@H](C=O)CC(=O)O)C(C)C [Ac-YVAD-CHO]
- blocking of PSI-induced morphological changes and DNA fragmentation (HUE cells [4]): unable to inhibit the action of PSI
